{"source": "patent US20090018134A1", "about": "“Compounds - 945” (AstraZeneca AB, priority 2007, published 2009)", "target": "T1, mTOR (Homo sapiens, UniProt P42345)", "T1 construct": "FLAG; made in house", "T1 sequence (P42345 1362-2549)": "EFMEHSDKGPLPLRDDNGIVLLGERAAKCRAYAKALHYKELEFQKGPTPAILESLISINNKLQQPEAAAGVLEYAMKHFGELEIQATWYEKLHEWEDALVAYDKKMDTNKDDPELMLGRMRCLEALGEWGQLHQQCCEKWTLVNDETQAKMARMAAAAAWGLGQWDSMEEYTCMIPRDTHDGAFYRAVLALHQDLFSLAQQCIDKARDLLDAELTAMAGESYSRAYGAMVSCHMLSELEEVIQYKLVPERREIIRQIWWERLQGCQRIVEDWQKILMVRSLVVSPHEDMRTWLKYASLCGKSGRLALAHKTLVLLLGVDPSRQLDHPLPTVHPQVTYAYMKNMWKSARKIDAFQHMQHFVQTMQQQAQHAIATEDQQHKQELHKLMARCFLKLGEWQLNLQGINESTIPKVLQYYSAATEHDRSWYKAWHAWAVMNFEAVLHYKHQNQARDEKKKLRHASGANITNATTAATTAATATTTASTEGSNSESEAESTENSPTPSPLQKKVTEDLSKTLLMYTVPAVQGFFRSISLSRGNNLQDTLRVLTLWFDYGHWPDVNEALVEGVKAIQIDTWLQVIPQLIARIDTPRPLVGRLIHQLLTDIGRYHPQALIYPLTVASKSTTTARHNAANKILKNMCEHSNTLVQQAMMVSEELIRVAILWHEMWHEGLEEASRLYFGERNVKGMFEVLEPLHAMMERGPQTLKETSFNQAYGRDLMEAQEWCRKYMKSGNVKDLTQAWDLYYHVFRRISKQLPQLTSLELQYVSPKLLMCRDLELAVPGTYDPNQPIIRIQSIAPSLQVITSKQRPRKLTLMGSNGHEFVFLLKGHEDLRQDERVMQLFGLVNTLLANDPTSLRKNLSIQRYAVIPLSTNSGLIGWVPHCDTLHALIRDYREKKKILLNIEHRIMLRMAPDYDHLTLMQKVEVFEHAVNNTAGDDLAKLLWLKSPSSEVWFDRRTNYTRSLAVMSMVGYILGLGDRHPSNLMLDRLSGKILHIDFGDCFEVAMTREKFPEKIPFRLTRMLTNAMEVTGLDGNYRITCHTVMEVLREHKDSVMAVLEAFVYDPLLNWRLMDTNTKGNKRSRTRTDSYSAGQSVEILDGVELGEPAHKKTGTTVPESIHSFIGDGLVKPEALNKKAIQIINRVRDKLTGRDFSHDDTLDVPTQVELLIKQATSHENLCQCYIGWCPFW", "test": "In Vitro mTOR Kinase Assay (Echo), Test (a)(ii)", "format": "biochemical", "outline": "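Compounds were acoustically dispensed, then incubated with FLAG-tagged mTOR (1362-2549) for 2 hours at room temperature. Reactions were quenched with EDTA plus detection antibody and AlphaScreen beads and left overnight in the dark before reading. Loss of phospho-T389 signal gave IC50 values.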", "key": {"[1]": {"details": "table of enzyme assay Test (a)(ii), read-out: Test (a)(ii) IC50"}, "[2]": {"details": "read-out: mTOR Kinase Assay (Echo)"}}, "note": "Read-outs that look alike come from different tables or passages of the source."}
{"smiles": "C[C@H]1COCCN1c1cc(C2(S(=O)(=O)CCCO)CCC2)nc(-c2ccc(NC(=O)Nc3ccon3)cc2)n1", "note": "[Example 43m, 1-[4-[4-[1-(3-hydroxypropylsulfonyl)cyclobu-tyl]-6-[(3S)-3-methylmorpholin-4-yl]pyrimidin-2-yl]phenyl]-3-(1,2-oxazol-3-yl)urea]", "values": [{"measurement": "IC50", "setting": "[1]", "result": 5.31, "unit": "nM"}]}
{"smiles": "C[C@H]1COCCN1c1cc(C2(S(=O)(=O)c3ccc(F)cc3)CC2)nc(-c2ccc(NC(=O)Nc3cnn(C)c3)cc2)n1", "note": "[Example 8m, 1-[4-[4-[1-(4-fluorophenyl)sulfonylcyclopropyl]-6-[(3S)-3-methylmorpholin-4-yl]pyrimidin-2-yl]phenyl]-3-(1-methylpyrazol-4-yl)urea]", "values": [{"measurement": "IC50", "setting": "[2]", "result": 1.36, "unit": "nM"}]}
{"smiles": "C[C@H]1COCCN1c1cc(C2(S(=O)(=O)c3ccccc3)CC2)nc(-c2ccc(NC(=O)NCC(=O)N(C)C)cc2)n1", "note": "[Example 36dq, 2-[[4-[4-[1-(benzenesulfonyl)cyclopropyl]-6-[(3S)-3-methylmorpholin-4-yl]pyrimidin-2-yl]phenyl]carbamoylamino]-N,N-dimethylacetamide]", "values": [{"measurement": "IC50", "setting": "[1]", "result": 24.5, "unit": "nM"}]}
{"smiles": "C[C@H]1COCCN1c1cc(C2(S(C)(=O)=O)CCOCC2)nc(-c2ccc(NC(=O)NCCO)cc2)n1", "note": "[Example 23c, 3-(2-hydroxyethyl)-1-[4-[4-[(3S)-3-methylmorpholin-4-yl]-6-(4-methylsulfonyloxan-4-yl)pyrimidin-2-yl]phenyl]urea]", "values": [{"measurement": "IC50", "setting": "[1]", "result": 0.831, "unit": "nM"}]}
{"smiles": "C[C@H]1COCCN1c1cc(C2(S(=O)(=O)C3CCCCC3)CC2)nc(-c2ccc(NC(=O)NC3CC3)cc2)n1", "note": "[Example 26, 1-[4-[4-(1-Cyclohexylsulfonylcyclopropyl)-6-[(3S)-3-methylmorpholin-4-yl]pyrimidin-2-yl]phenyl]-3-cyclopropylurea]", "values": [{"measurement": "IC50", "setting": "[1]", "result": 6.05, "unit": "nM"}]}
{"smiles": "CC[C@H]1COCCN1c1cc(C2(S(C)(=O)=O)CC2)nc(-c2ccc(NC(=O)NCC(F)F)cc2)n1", "note": "[Example 84d, 3-(2,2-difluoroethyl)-1-[4-[4-[(3S)-3-ethylmorpholin-4-yl]-6-(1-methylsulfonylcyclopropyl)pyrimidin-2-yl]phenyl]urea]", "values": [{"measurement": "IC50", "setting": "[1]", "result": 9.59, "unit": "nM"}]}
{"smiles": "CS(=O)(=O)C1(c2cc(N3CCOCC3)nc(-c3ccc(NC(=O)NCCO)cc3)n2)CCC1", "note": "[Example 12r, 3-(2-hydroxyethyl)-1-[4-[4-(1-methylsulfonylcyclobutyl)-6-morpholin-4-ylpyrimidin-2-yl]phenyl]urea]", "values": [{"measurement": "IC50", "setting": "[2]", "result": 0.991, "unit": "nM"}]}
{"smiles": "CNC(=S)Nc1ccc(-c2nc(N3CCOC[C@@H]3C)cc(C3(S(=O)(=O)C4CC4)CC3)n2)cc1", "note": "[Example 37a, 1-[4-[4-(1-cyclopropylsulfonylcyclopropyl)-6-[(3S)-3-methylmorpholin-4-yl]pyrimidin-2-yl]phenyl]-3-methylthiourea]", "values": [{"measurement": "IC50", "setting": "[1]", "result": 26, "unit": "nM"}]}
{"smiles": "C[C@H]1COCCN1c1cc(C2(S(=O)(=O)c3ccc(Cl)cc3)CC2)nc(-c2ccc(NC(=O)NC(C)(C)CO)cc2)n1", "note": "[Example 27k, 1-[4-[4-[1-(4-chlorophenyl)sulfonylcyclopropyl]-6-[(3S)-3-methylmorpholin-4-yl]pyrimidin-2-yl]phenyl]-3-(1-hydroxy-2-methylpropan-2-yl)urea]", "values": [{"measurement": "IC50", "setting": "[1]", "result": 4.62, "unit": "nM"}]}
{"smiles": "C[C@H](CO)NC(=O)Nc1ccc(-c2nc(N3CCOC[C@@H]3C)cc(C3(S(=O)(=O)c4ccc(F)cc4)CCC3)n2)cc1", "note": "[Example 65e, 1-[4-[4-[1-(4-fluorophenyl)sulfonylcyclobutyl]-6-[(3S)-3-methylmorpholin-4-yl]pyrimidin-2-yl]phenyl]-3-[(2R)-1-hydroxypropan-2-yl]urea]", "values": [{"measurement": "IC50", "setting": "[1]", "result": 11.4, "unit": "nM"}]}
{"smiles": "C[C@H]1COCCN1c1cc(C2(S(=O)(=O)c3cc(F)cc(F)c3)CCNCC2)nc(-c2ccc(NC(=O)NC3CC3)cc2)n1", "note": "[Example 30, 3-Cyclopropyl-1-[4-[4-[4-(3,5-difluorophenyl)sulfonylpiperidin-4-yl]-6-[(3S)-3-methylmorpholin-4-yl]pyrimidin-2-yl]phenyl]urea]", "values": [{"measurement": "IC50", "setting": "[1]", "result": 25, "unit": "nM"}]}
{"smiles": "C[C@H]1COCCN1c1cc(C2(S(=O)(=O)C3CC3)CCNCC2)nc(-c2ccc(NC(=O)NCCO)cc2)n1", "note": "[Example 21b, 1-[4-[4-(4-cyclopropylsulfonylpiperidin-4-yl)-6-[(3S)-3-methylmorpholin-4-yl]pyrimidin-2-yl]phenyl]-3-(2-hydroxyethyl)urea]", "values": [{"measurement": "IC50", "setting": "[1]", "result": 13.3, "unit": "nM"}]}
{"smiles": "C[C@H]1COCCN1c1cc(C2(S(=O)(=O)c3ccccc3)CCC2)nc(-c2ccc(NC(=O)NCCC#N)cc2)n1", "note": "[Example 36dt, 1-[4-[4-[1-(benzenesulfonyl)cyclobutyl]-6-[(3S)-3-methylmorpholin-4-yl]pyrimidin-2-yl]phenyl]-3-(2-cyanoethyl)urea]", "values": [{"measurement": "IC50", "setting": "[1]", "result": 0.37, "unit": "nM"}]}
{"smiles": "C[C@H]1COCCN1c1cc(C2(S(=O)(=O)C3CC3)CC2)nc(-c2ccc(NC(=O)Nc3cnn(C)c3)cc2)n1", "note": "[Example 3m, 1-[4-[4-(1-cyclopropylsulfonylcyclopropyl)-6-[(3S)-3-methylmorpholin-4-yl]pyrimidin-2-yl]phenyl]-3-(1-methylpyrazol-4-yl)urea]", "values": [{"measurement": "IC50", "setting": "[2]", "result": 0.497, "unit": "nM"}]}
{"smiles": "C[C@H]1COCCN1c1cc(C2(S(=O)(=O)c3ccccc3)CC2)nc(-c2ccc(NC(=O)NC3CCC3)cc2)n1", "note": "[Example 36bd, 1-[4-[4-[1-(benzenesulfonyl)cyclopropyl]-6-[(3S)-3-methylmorpholin-4-yl]pyrimidin-2-yl]phenyl]-3-cyclobutylurea]", "values": [{"measurement": "IC50", "setting": "[1]", "result": 2.58, "unit": "nM"}]}
{"smiles": "C[C@H]1COCCN1c1cc(C2(S(=O)(=O)CCCO)CCCC2)nc(-c2ccc(NC(=O)NCCO)cc2)n1", "note": "[Example 43g, 3-(2-hydroxyethyl)-1-[4-[4-[1-(3-hydroxypropyl-sulfonyl)cyclopen-tyl]-6-[(3S)-3-methylmorpholin-4-yl]pyrimidin-2-yl]phenyl]urea]", "values": [{"measurement": "IC50", "setting": "[1]", "result": 29, "unit": "nM"}]}
{"smiles": "C[C@H]1COCCN1c1cc(C2(S(=O)(=O)C3CC3)CCCC2)nc(-c2ccc(NC(=O)NCCC#N)cc2)n1", "note": "[Example 36l, 3-(2-cyanoethyl)-1-[4-[4-(1-cyclopropylsulfonylcyclopentyl)-6-[(3S)-3-methylmorpholin-4-yl]pyrimidin-2-yl]phenyl]urea]", "values": [{"measurement": "IC50", "setting": "[1]", "result": 42.8, "unit": "nM"}]}
{"smiles": "Cc1nn(C(F)F)c(C)c1S(=O)(=O)C1(c2cc(N3CCOC[C@@H]3C)nc(-c3ccc(NC(=O)Nc4cnn(C)c4)cc3)n2)CC1", "note": "[Example 75f, 1-[4-[4-[1-[1-(difluoromethyl)-3,5-dimethylpyrazol-4-yl]sulfonylcyclopropyl]-6-[(3S)-3-methylmorpholin-4-yl]pyrimidin-2-yl]phenyl]-3-(1-methylpyrazol-4-yl)urea]", "values": [{"measurement": "IC50", "setting": "[1]", "result": 60.8, "unit": "nM"}]}
{"smiles": "CNC(=O)Nc1ccc(-c2nc(N3CCOC[C@@H]3C)cc(C3(S(=O)(=O)c4ccccn4)CC3)n2)cc1", "note": "[Example 28e, 3-methyl-1-[4-[4-[(3S)-3-methylmorpholin-4-yl]-6-(1-pyridin-2-ylsulfonylcyclopropyl)pyrimidin-2-yl]phenyl]urea]", "values": [{"measurement": "IC50", "setting": "[1]", "result": 0.434, "unit": "nM"}]}
{"smiles": "CC(C)CNC(=O)Nc1ccc(-c2nc(N3CCOC[C@@H]3C)cc(C3(S(=O)(=O)CCCO)CC3)n2)cc1", "note": "[Example 31d, 1-[4-[4-[1-(3-hydroxypropylsulfonyl)cyclopropyl]-6-[(3S)-3-methylmorpholin-4-yl]pyrimidin-2-yl]phenyl]-3-(2-methylpropyl)urea]", "values": [{"measurement": "IC50", "setting": "[1]", "result": 9.55, "unit": "nM"}]}
{"smiles": "O=C(Nc1ccc(-c2nc(N3CCOCC3)cc(C3(S(=O)(=O)C4CC4)CCCC3)n2)cc1)NC1CC1", "note": "[Example 13j, 3-cyclopropyl-1-[4-[4-(1-cyclopropylsulfonylcyclopentyl)-6-morpholin-4-ylpyrimidin-2-yl]phenyl]urea]", "values": [{"measurement": "IC50", "setting": "[1]", "result": 17.8, "unit": "nM"}]}
{"smiles": "CCNC(=O)Nc1ccc(-c2nc(N3CCOC[C@@H]3C)cc(C3(S(=O)(=O)c4cncc(F)c4)CC3)n2)cc1", "note": "[Example 17a, 3-ethyl-1-[4-[4-[1-(5-fluoropyridin-3-yl)sulfonylcyclopropyl]-6-[(3S)-3-methylmorpholin-4-yl]pyrimidin-2-yl]phenyl]urea]", "values": [{"measurement": "IC50", "setting": "[1]", "result": 0.942, "unit": "nM"}]}
{"smiles": "Cc1csc(S(=O)(=O)C2(c3cc(N4CCOCC4)nc(-c4ccc(NC(=O)NC(C)C)cc4)n3)CC2)n1", "note": "[Example 42h, 1-[4-[4-[1-[(4-methyl-1,3-thiazol-2-yl)sulfonyl]cyclopropyl]-6-morpholin-4-ylpyrimidin-2-yl]phenyl]-3-propan-2-ylurea]", "values": [{"measurement": "IC50", "setting": "[1]", "result": 4.12, "unit": "nM"}]}
{"smiles": "CS(=O)(=O)C1(c2cc(N3CCOCC3)nc(-c3ccc(NC(=O)NC4CCC4)cc3)n2)CC1", "note": "[Example 12c, 3-cyclobutyl-1-[4-[4-(1-methylsulfonylcyclopropyl)-6-morpholin-4-ylpyrimidin-2-yl]phenyl]urea]", "values": [{"measurement": "IC50", "setting": "[2]", "result": 1.52, "unit": "nM"}, {"measurement": "IC50", "setting": "[1]", "result": 7.51, "unit": "nM"}]}
{"smiles": "C[C@H]1COCCN1c1cc(C2(S(=O)(=O)C3CC3)CCOCC2)nc(-c2ccc(NC(=O)NC3CC3)cc2)n1", "note": "[Example 23e, 3-cyclopropyl-1-[4-[4-(4-cyclopropylsulfonyloxan-4-yl)-6-[(3S)-3-methylmorpholin-4-yl]pyrimidin-2-yl]phenyl]urea]", "values": [{"measurement": "IC50", "setting": "[1]", "result": 8.76, "unit": "nM"}]}
{"smiles": "C[C@H]1COCCN1c1cc(C2(S(C)(=O)=O)CCCC2)nc(-c2cnc(NC(=O)Nc3cnn(C)c3)nc2)n1", "note": "[Example 14v, 1-[5-[4-[(3S)-3-methylmorpholin-4-yl]-6-(1-methylsulfonylcyclopentyl)pyri-midin-2-yl]pyrimidin-2-yl]-3-(1-methylpyrazol-4-yl)urea]", "values": [{"measurement": "IC50", "setting": "[1]", "result": 82.3, "unit": "nM"}]}
{"smiles": "Cc1ccc(S(=O)(=O)C2(c3cc(N4CCOC[C@@H]4C)nc(-c4ccc(NC(=O)NC5CC5)cc4)n3)CC2)cc1", "note": "[Example 95m, 3-cyclopropyl-1-[4-[4-[(3S)-3-methylmorpholin-4-yl]-6-[1-(4-methylphenyl)sulfonylcyclopropyl]pyrimidin-2-yl]phenyl]urea]", "values": [{"measurement": "IC50", "setting": "[1]", "result": 2.02, "unit": "nM"}]}
{"smiles": "CC(C)NC(=O)Nc1ccc(-c2nc(N3CCOC[C@@H]3C)cc(C3(S(=O)(=O)c4ccc(F)cc4)CC3)n2)cc1", "note": "[Example 8c, 1-[4-[4-[1-(4-fluorophenyl)sulfonylcyclopropyl]-6-[(3S)-3-methylmorpholin-4-yl]pyrimidin-2-yl]phenyl]-3-propan-2-yl-urea]", "values": [{"measurement": "IC50", "setting": "[2]", "result": 1.85, "unit": "nM"}]}
{"smiles": "C[C@H]1COCCN1c1cc(C2(S(=O)(=O)c3ccccn3)CC2)nc(-c2ccc(NC(=O)NCCCO)cc2)n1", "note": "[Example 28k, 3-(3-hydroxypropyl)-1-[4-[4-[(3S)-3-methymorpholin-4-yl]-6-(1-pyridin-2-ylsulfonylcyclopropyl)pyrimidin-2-yl]phenyl]urea]", "values": [{"measurement": "IC50", "setting": "[1]", "result": 0.954, "unit": "nM"}]}
